Results taken from patent US11840535B2, “Alkynyl(hetero)aromatic compound for inhibiting protein kinase activity” (Shenzhen TargetRx, Inc., priority 2018, dated 2023).

How the values were obtained:
Ba/F3 parental cells = assay: Cell proliferation analysis, Ba/F3 parental; format: cell-based; details: Mus musculus, BaF3, 72 h; 8 ng/ml IL-3, 3 days, CellTiter-Glo
Protocol: (§1) The inhibitory effect of the example compounds on Ba/F3, Ba/F3 Bcr-Abl T315I cell activity was determined.
(§2) Materials and reagents: RPMI-1640 medium (GIBCO, Catalog No. A10491-01), fetal bovine serum (GIBCO, Catalog No. 10099141), antibiotics (Penicillin-Streptomycin), IL-3 (PeproTech), promycin; cell lines: Ba/F3, Ba/F3 Bcr-Abl T315I (Purchased from American type culture collection, ATCC), live cell detection kit […] (Promega, Catalog No. G7572), 96-well black wall transparent flat bottom cell culture plate (Corning, Catalog No. 3340).
(§3) Test method: 1. Preparation of cell plate: Ba/F3, Ba/F3 Bcr-Abl T315I cells were respectively seeded in 96-well plates, and 8 ng/ml IL-3 was added to the Ba/F3 cells, and the cell plates were placed in a carbon dioxide incubator and cultured overnight. 2. The test compounds were dissolved in DMSO, 9 compound concentrations were made with a 3.16-fold gradient dilution in triplicate. 3. Treatment of the cells with compounds: The compounds were transferred to the cell plate with a starting concentration of 10 μM. The cell plate was placed in a carbon dioxide incubator for 3 days. 4. Detection: CellTiter-Glo agent was added to the cell plate, and incubated at room temperature for 30 minutes to stabilize the luminous signal. PerkinElmer Envision multi-label analyzer was used for reading, wherein A represents […], B represents IC50 is 10-20 nM, C represents IC50 is 20-50 nM, D represents IC50 is 50-1000 nM, E represents IC50>1000 nM.

[1] = Metabolic stability evaluation, human liver microsome assay; format: in vitro ADME; details: pH 7.4, human liver microsomes 0.5 mg/mL, compound 1 μM, 37° C.; for microsomal CLint at 1 μM: read-out: HLM Clint; for half-life at 1 μM: read-out: HLM T1/2
Protocol: Microsome assay: human liver microsomes: 0.5 mg/mL, Xenotech; coenzyme (NADPH/NADH): 1 mM, Sigma Life Science; magnesium chloride: 5 mM, 100 mM phosphate buffer (pH is 7.4).
Preparation of stock solution: Powder of the example compounds and the reference compound were accurately weighed, and dissolved to 5 mM with DMSO, respectively.
Preparation of phosphate buffer (100 mM, pH7.4): Pre-formulated 150 mL 0.5 M potassium dihydrogen phosphate and 700 mL 0.5 M dipotassium hydrogen phosphate were mixed, then the pH of the mixture was adjusted to 7.4 with 0.5 M dipotassium hydrogen phosphate. Before use, 5-fold dilution was made with ultra-pure water, and magnesium chloride was added to afford phosphate buffer (100 mM), which containing 100 mM potassium phosphate, 3.3 mM magnesium chloride, and pH is 7.4.
NADPH regeneration system solution (containing 6.5 mM NADP, 16.5 mM G-6-P, 3 U/mL G-6-P D, 3.3 mM magnesium chloride) was prepared and placed on wet ice before use.
Preparation of stop solution: Acetonitrile solution containing 50 ng/mL propranolol hydrochloride and 200 ng/mL tolbutamide (internal standard). 25057.5 μL phosphate buffer (pH 7.4) was taken into a 50 mL centrifuge tube, and 812.5 μL human liver microsome was added respectively, mixed well to afford liver microsome diluention with a protein concentration of 0.625 mg/mL.
Incubation of the sample: The stock solutions of the corresponding compounds were diluted to 0.25 mM with an aqueous solution containing 70% acetonitrile as working solutions for use. 398 μL of human liver microsome diluention was taken and added to a 96-well incubation plate (N=2), respectively, and 2 μL of 0.25 mM working solutions were then added respectively, and mixed well.
Determination of metabolic stability: 300 μL of pre-chilled stop solution was added to each well of a 96-well deep well plate and the plate was placed on ice as a stop plate. The 96-well incubation plate and NADPH regeneration system were placed in a 37° C. water bath, shook at 100 rpm, and pre-incubated for 5 min. 80 μL of incubation solution was taken from each well of the incubation plate and added to the stop plate, mixed well, and 20 μL of NADPH regeneration system solution was supplemented, the resulted solution was considered as sample at 0 min. Then 80 μL of NADPH regeneration system solution was added to each well of the incubation plate to start the reaction and started timing. The reaction concentration of the corresponding compound is 1 μM, and the protein concentration is 0.5 mg/mL. 100 μL reaction solution was taken at 10, 30, 90 min of reaction, respectively, and added into stop plate, the reaction was stopped with 3 min vortex. The stop plate was centrifuged at 5000×g, 4° C. for 10 min. 100 μL of supernatant was taken to a 96-well plate where 100 μL of distilled water was added in advance, mixed well, sample analysis was carried out by LC-MS/MS.
Data analysis: LC-MS/MS system was used to detect peak area of corresponding compound and internal standard, peak area ratio of compound to internal standard was calculated. The slope was measured by plotting the natural logarithm of the remaining percentage of the compound versus time, and t1/2 and CLint were calculated according to the following formula, wherein V/M means 1/protein concentration.

ABL^T315I = ABL^T315I (Homo sapiens (Human), UniProt P00519, T315I); assay: Biochemical kinase analysis, ABL T315I
Protocol: (§4) Reagents and materials: ABL (ThermoFisher, Cat. No PV3585), ABL^T315I (Thermo Fisher, Cat. No. PR7429B), ATP (Sigma, Cat. No. A7699-1G), DMSO (Sigma, Cat. No. D2650), 96-well plate (Corning, Cat. No. 3365), 384-well plate (Greiner, Cat. No. 784076), buffer solution (Thermo Fisher, Cat. No. PR4876B).
(§5) Compound formulation: The test compounds were dissolved in DMSO to prepare a 20 mM stock solution. Before use, the compounds were diluted in DMSO to 0.1 mM, and diluted into 11 concentrations with a 3-fold gradient. When addition, diluentions of 4-fold final concentration were then made with buffer solution.
(§6) Kinase assay method: After preparing the buffer, the enzyme was mixed with pre-formulated and diluted compounds of different concentrations in duplicate for each concentration, and placed at room temperature for 30 minutes. The corresponding substrate and ATP were added thereto, and reacted at room temperature for 60 minutes (both a negative and a positive control were set). After the reaction, antibody was added for detection, Envision detection was carried out after 60 minutes incubation at room temperature, and data was collected. Data analysis and fitting were made according to XLfit5 software, wherein, A represents IC50≤5 nM, B represents IC50 is 5-50 nM, C represents IC50 is 50-100 nM, D represents IC50>100 nM.

ABL = ABL (Homo sapiens (Human), UniProt P00519); assay: Biochemical kinase analysis, ABL
Protocol: as §4, §5, §6

[2] = test system: Ba/F3 Bcr-Abl T315I cells; assay: Cell proliferation analysis, Ba/F3 Bcr-Abl T315I; format: cell-based; details: for IC50: Mus musculus, BaF3, 72 h, 3 days, CellTiter-Glo; for Selectivity [Ba/F3 (parental/Bcr-Abl ^T315I)]: ratio of Ba/F3 parental to Ba/F3 Bcr-Abl T315I
Protocol: as §1, §2, §3

CCn1cc(C#Cc2cc(C(=O)Nc3ccc(CN4CCN(C)CC4)c(C(F)(F)F)c3)ccc2C)c2c(N)ncnc21 [Example 5, 3-((4-amino-7-ethyl-7H-pyrrolo[2,3-d]pyrimidin-5-yl)ethynyl)-4-methyl-N-(4-((4-methylpiperazin-1-yl)methyl)-3-(trifluoromethyl)phenyl)benzamide]
IC50 (Ba/F3 parental cells): 50 to 1000 nM
microsomal CLint at 1 μM [1]: 19.9 µL/min/mg
half-life at 1 μM [1]: 1.16 h
IC50 (ABL^T315I): ≤ 5 nM
IC50 (ABL): ≤ 5 nM
IC50 [2]: ≤ 10 nM
Selectivity [Ba/F3 (parental/Bcr-Abl ^T315I)] [2]: 100~150

CCn1cc(C#Cc2cc(C(=O)Nc3cccc(C(F)(F)F)c3)ccc2C)c2c(N)ncnc21 [Example 6, 3-((4-amino-7-ethyl-7H-pyrrolo[2,3-d]pyrimidin-5-yl)ethynyl)-4-methyl-N-(3-(trifluoromethyl)phenyl)benzamide]
IC50 (Ba/F3 parental cells): > 1000 nM
microsomal CLint at 1 μM [1]: 3.5 µL/min/mg
half-life at 1 μM [1]: 6.58 h
IC50 (ABL^T315I): ≤ 5 nM
IC50 (ABL): ≤ 5 nM
IC50 [2]: 10 to 20 nM
Selectivity [Ba/F3 (parental/Bcr-Abl ^T315I)] [2]: 100~150

Cc1cn(-c2cc(NC(=O)c3ccc(C)c(C#Cc4cn(C)c5ncnc(N)c45)c3)cc(C(F)(F)F)c2)cn1 [Example 11, 3-((4-amino-7-methyl-7H-pyrrolo[2,3-d]pyrimidin-5-yl)ethynyl)-4-methyl-N-(3-(4-methyl-1H-imidazol-1-yl)-5-(trifluoromethyl)phenyl)benzamide]
IC50 (Ba/F3 parental cells): > 1000 nM
IC50 (ABL^T315I): 5 to 50 nM
IC50 (ABL): ≤ 5 nM
IC50 [2]: 10 to 20 nM
Selectivity [Ba/F3 (parental/Bcr-Abl ^T315I)] [2]: >500

Cc1cn(-c2cc(NC(=O)c3ccc(C)c(C#Cc4cn(C(C)C)c5ncnc(N)c45)c3)cc(C(F)(F)F)c2)cn1 [Example 12, 3-((4-amino-7-isopropyl-7H-pyrrolo[2,3-d]pyrimidin-5-yl)ethynyl)-4-methyl-N-(3-(4-methyl-1H-imidazol-1-yl)-5-(trifluoromethyl)phenyl)benzamide]
IC50 (Ba/F3 parental cells): > 1000 nM
microsomal CLint at 1 μM [1]: 20.9 µL/min/mg
half-life at 1 μM [1]: 1.11 h
IC50 (ABL^T315I): 5 to 50 nM
IC50 (ABL): 5 to 50 nM
IC50 [2]: 20 to 50 nM
Selectivity [Ba/F3 (parental/Bcr-Abl ^T315I)] [2]: 150~500

Cc1ccc(C(=O)Nc2cccc(C(F)(F)F)c2)cc1C#Cc1cn(C(C)C)c2ncnc(N)c12 [Example 13, 3-((4-amino-7-isopropyl-7H-pyrrolo[2,3-d]pyrimidin-5-yl)ethynyl)-4-methyl-N-(3-(trifluoromethyl)phenyl)benzamide]
IC50 (Ba/F3 parental cells): > 1000 nM
IC50 (ABL^T315I): 5 to 50 nM
IC50 (ABL): 5 to 50 nM
IC50 [2]: 20 to 50 nM
Selectivity [Ba/F3 (parental/Bcr-Abl ^T315I)] [2]: 100~150

Cc1ccc(C(=O)Nc2cccc(C(F)(F)F)c2)cc1C#Cc1cn(C)c2ncnc(N)c12 [Example 14, 3-((4-amino-7-methyl-7H-pyrrolo[2,3-d]pyrimidin-5-yl)ethynyl)-4-methyl-N-(3-(trifluoromethyl)phenyl)benzamide]
IC50 (Ba/F3 parental cells): > 1000 nM
IC50 (ABL^T315I): ≤ 5 nM
IC50 (ABL): ≤ 5 nM
IC50 [2]: 20 to 50 nM
Selectivity [Ba/F3 (parental/Bcr-Abl ^T315I)] [2]: 50~100

Cc1ccc(C(=O)Nc2ccc(CN3CCN(C)CC3)c(C(F)(F)F)c2)cc1C#Cc1cn(C(C)C)c2ncnc(N)c12 [Example 15, 3-((4-amino-7-isopropyl-7H-pyrrolo[2,3-d]pyrimidin-5-yl)ethynyl)-4-methyl-N-(4-((4-methylpiperazin-1-yl)methyl)-3-(trifluoromethyl)phenyl)benzamide]
IC50 (Ba/F3 parental cells): > 1000 nM
microsomal CLint at 1 μM [1]: 11.8 µL/min/mg
half-life at 1 μM [1]: 1.95 h
IC50 (ABL^T315I): ≤ 5 nM
IC50 (ABL): ≤ 5 nM
IC50 [2]: 20 to 50 nM
Selectivity [Ba/F3 (parental/Bcr-Abl ^T315I)] [2]: 0~50

Cc1ccc(C(=O)Nc2ccc(CN3CCN(C)CC3)c(C(F)(F)F)c2)cc1C#Cc1cn(C)c2ncnc(N)c12 [Example 16, 3-((4-amino-7-methyl-7H-pyrrolo[2,3-d]pyrimidin-5-yl)ethynyl)-4-methyl-N-(4-((4-methylpiperazin-1-yl)methyl)-3-(trifluoromethyl)phenyl)benzamide]
IC50 (Ba/F3 parental cells): > 1000 nM
IC50 (ABL^T315I): ≤ 5 nM
IC50 (ABL): ≤ 5 nM
IC50 [2]: ≤ 10 nM
Selectivity [Ba/F3 (parental/Bcr-Abl ^T315I)] [2]: 150~500

Cc1ccc(NC(=O)c2ccc(CN3CCN(C)CC3)c(C(F)(F)F)c2)cc1C#Cc1cn(C)c2ncnc(N)c12 [Example 19, N-(3-((4-amino-7-methyl-7H-pyrrolo[2,3-d]pyrimidin-5-yl)ethynyl)-4-methylphenyl)-4-((4-methylpiperazin-1-yl)methyl)-3-(trifluoromethyl)benzamide]
IC50 (Ba/F3 parental cells): > 1000 nM
IC50 (ABL^T315I): ≤ 5 nM
IC50 (ABL): ≤ 5 nM
IC50 [2]: ≤ 10 nM
Selectivity [Ba/F3 (parental/Bcr-Abl ^T315I)] [2]: 150~500

CCn1cc(C#Cc2cc(NC(=O)c3cc(-n4cnc(C)c4)cc(C(F)(F)F)c3)ccc2C)c2c(N)ncnc21 [Example 21, N-(3-((4-amino-7-ethyl-7H-pyrrolo[2,3-d]pyrimidin-5-yl)ethynyl)-4-methylphenyl)-3-(4-methyl-1H-imidazol-1-yl)-5-(trifluoromethyl)benzamide]
IC50 (Ba/F3 parental cells): 50 to 1000 nM
IC50 (ABL^T315I): 5 to 50 nM
IC50 (ABL): ≤ 5 nM
IC50 [2]: ≤ 10 nM
Selectivity [Ba/F3 (parental/Bcr-Abl ^T315I)] [2]: 50~100

Cc1ccc(C(=O)Nc2ccc(C)c(C(F)(F)F)c2)cc1C#Cc1cn([C@H]2CC[C@H](O)CC2)c2ncnc(N)c12 [Example 24, 3-((4-amino-7-((1r,4r)-4-hydroxycyclohexyl)-7H-pyrrolo[2,3-d]pyrimidin-5-yl)ethynyl)-4-methyl-N-(4-methyl-3-(trifluoromethyl)phenyl)benzamide]
IC50 (Ba/F3 parental cells): > 1000 nM
IC50 (ABL^T315I): 5 to 50 nM
IC50 (ABL): ≤ 5 nM
IC50 [2]: 10 to 20 nM
Selectivity [Ba/F3 (parental/Bcr-Abl ^T315I)] [2]: 150~500
